Source: patent US11773109B2, “Composition for hardening soft tissue” (The Catholic University of Korea Industry—Academic …, priority 2016, dated 2023)
Entries after “also recorded” stand apart in the source; their conditions may differ.

What was measured:
[1] = tested on: pancreas of mice; test: Hardness (elastic modulus) of the mouse pancreas after treatment, hardness meter (Venustron); type: in vivo; conditions: mouse pancreas treated with 1 mM of compound; compared to control (PBS / untreated); result in words
Description: The measurement of the hardness according to the present invention is performed using a hardness meter, and measurement of the hardness of the pancreas is performed by measuring elastic modulus (EM) based on the Hooke's law and the Hertz's contact stress theory. The EM is a measure of the stiffness of an elastic material, and is expressed as the ratio of “the stress along the axis” and “the total strain along the axis within the range of the stress” by the Hooke's law.
(§1) More specifically, three mice were treated with 1 mM of each of the antibiotics shown above, and three mice were treated with phosphate buffered saline (PBS) as a control.
(1) Measurement of Hardness
In order to measure the resistance of the pancreas using a hardness meter, the elastic modulus (EM) of the dissected pancreas was measured using Venustron (Axiom, Koriyama, Japan) based on the Hooke's law and the Hertz's contract stress theory, and the resistance of the pancreas was calculated using the following equation: […]
(F, force; v, Poisson's ratio; t, variant of compression; r, the diameter of a rigid spherical probe that presses an object vertically)

[2] = tested on: pancreas of mice; test: Tension (suture-holding capacity) of the mouse pancreas after treatment, Newton dynamometer; type: in vivo; conditions: mouse pancreas treated with 1 mM of compound; compared to control (PBS / untreated); result in words
Description: Specifically, it means a force which occurs in an organ in response to an external force exerted by stretching or pulling action. The measurement of the tension according to the present invention is performed using a dynamometer. More specifically, the tension is determined by measuring suture-holding capacity using a Newton dynamometer. At this time, the tension is calculated by adding the weight of the tissue.
as §1
(2) Measurement of Tensile
The tension of the pancreas was measured using a dynamometer. Specifically, a pancreatic fragment having a size of 1×1×1.5 cm was prepared, and then silk 4-0 suture was passed through the tissue to form a knob, and suture-holding capacity was measured using a Newton dynamometer. At this time, the tension was calculated by adding the weight of the tissue.

Row | SMILES | change in the hardness of the pancreas compared to the control [1] | change in the tension of the pancreas compared to the control [2]
1 | CCOCCOCCOC(=O)[C@@H]1N2C(=O)[C@@H](NC(=O)Cc3ccccc3)[C@H]2SC1(C)C [KRM-60080, 2-(2-ethoxyethoxy)ethyl (2S,5R,6R)-3,3-dimethyl-7-oxo-6-(2-phenylacetamido)-4-thia-1-azabicyclo[3.2.0]heptane-2-carboxylate] | increased both the hardness and tension of the pancreas to significant levels | increased both the hardness and tension of the pancreas to significant levels
2 | CC1(C)S[C@@H]2[C@H](NC(=O)[C@H](N)c3ccccc3)C(=O)N2[C@H]1C(=O)[O-].[Na+] [KRM-60036, Sodium (2S,5R,6R)-6-((R)-2-amino-2-phenylacetamido)-3,3-dimethyl-7-oxo-4-thia-1-azabicyclo[3.2.0]heptane-2-carboxylate, reference compound] | significantly increased the hardness; also recorded: had the effects of increasing the tension and hardness; also recorded: excellent effect on an increase in the hardness | had the effects of increasing the tension and hardness
3 | CC1(C)S[C@@H]2[C@H](NC(=O)Cc3ccccc3)C(=O)N2[C@H]1C(=O)OCC1CCCCC1 [KRM-60029, Cyclohexylmethyl (2S,5R,6R)-3,3-dimethyl-7-oxo-6-(2-phenylacetamido)-4-thia-1-azabicyclo[3.2.0]heptane-2-carboxylate] | both the hardness and tension of the pancreas increased | both the hardness and tension of the pancreas increased
4 | CC(C)(C)OC(=O)CCOC(=O)[C@@H]1N2C(=O)[C@@H](NC(=O)Cc3ccccc3)[C@H]2SC1(C)C [KRM-60077, 3-(tert-butoxy)-3-oxopropyl (2S,5R,6R)-3,3-dimethyl-7-oxo-6-(2-phenylacetamido)-4-thia-1-azabicyclo[3.2.0]heptane-2-carboxylate] | increased both the hardness and tension of the pancreas to significant levels | increased both the hardness and tension of the pancreas to significant levels
